Laboratory results from ChEMBL document CHEMBL1681651, “A broad spectrum anticancer nucleoside with selective toxicity against human colon cells in vitro” (2011).

How the values were obtained:
Format in all cases: functional
T47D = experiment: Growth inhibition of human T47D cells assessed as cell growth at 1 uM after 48 hrs by SRB assay; settings: read-out: Activity
K562 = experiment: Growth inhibition of human K562 cells assessed as cell growth at 10 uM after 48 hrs by SRB assay; settings: K562, 48 h, read-out: Activity
HOP-62 [1] = experiment: Growth inhibition of human HOP62 cells assessed as cell growth at 10 uM after 48 hrs by SRB assay; settings: HOP-62, 48 h, read-out: Activity
HOP-92 = experiment: Growth inhibition of human HOP92 cells assessed as cell growth at 10 uM after 48 hrs by SRB assay; settings: HOP-92, 48 h, read-out: Activity
NCI-H322M = experiment: Growth inhibition of human NCI-H322M cells assessed as cell growth at 10 uM after 48 hrs by SRB assay; settings: read-out: Activity
[2] = Growth inhibition of human […] cells after 48 hrs by […] growth inhibition assay
NCI-H226 = experiment: Growth inhibition of human NCI-H226 cells after 48 hrs by […] growth inhibition assay; settings: NCI-H226, 48 h
SNB-75 [3] = experiment: Growth inhibition of human SNB75 cells after 48 hrs by […] growth inhibition assay; settings: SNB-75, 48 h
IGROV-1 [4] = experiment: Growth inhibition of human IGROV1 cells after 48 hrs by […] growth inhibition assay; settings: IGROV-1, 48 h
OVCAR-3 = experiment: Growth inhibition of human OVCAR3 cells after 48 hrs by […] growth inhibition assay; settings: OVCAR-3, 48 h
TK-10 = experiment: Growth inhibition of human TK10 cells after 48 hrs by […] growth inhibition assay; settings: TK-10, 48 h
HOP-62 [5] = experiment: Growth inhibition of human HOP62 cells assessed as cell growth at 0.1 uM after 48 hrs by SRB assay; settings: HOP-62, 48 h, read-out: Activity
SNB-75 [6] = experiment: Growth inhibition of human SNB75 cells assessed as cell growth at 0.1 uM after 48 hrs by SRB assay; settings: SNB-75, 48 h, read-out: Activity
U-251 [7] = experiment: Growth inhibition of human U251 cells assessed as cell growth at 0.1 uM after 48 hrs by SRB assay; settings: U-251, 48 h, read-out: Activity
ACHN = experiment: Growth inhibition of human ACHN cells assessed as cell growth at 0.1 uM after 48 hrs by SRB assay; settings: read-out: Activity
UO-31 = experiment: Growth inhibition of human UO31 cells assessed as cell growth at 0.1 uM after 48 hrs by SRB assay; settings: UO-31, 48 h, read-out: Activity
DU-145 [8] = experiment: Growth inhibition of human DU145 cells assessed as cell growth at 0.1 uM after 48 hrs by SRB assay; settings: DU-145, 48 h, read-out: Activity
MCF7 [9] = experiment: Growth inhibition of human MCF7 cells assessed as cell growth at 0.1 uM after 48 hrs by SRB assay; settings: MCF7, 48 h, read-out: Activity
MDA-MB-231 = experiment: Growth inhibition of human MDA-MB-231 cells assessed as cell growth at 0.1 uM after 48 hrs by SRB assay; settings: MDA-MB-231, 48 h, read-out: Activity
U-251 [10] = experiment: Growth inhibition of human U251 cells assessed as cell growth at 10 uM after 48 hrs by SRB assay; settings: U-251, 48 h, read-out: Activity
UACC-257 = experiment: Growth inhibition of human UACC257 cells assessed as cell growth at 10 uM after 48 hrs by SRB assay; settings: UACC-257, 48 h, read-out: Activity
IGROV-1 [11] = experiment: Growth inhibition of human IGROV1 cells assessed as cell growth at 10 uM after 48 hrs by SRB assay; settings: IGROV-1, 48 h, read-out: Activity
OVCAR-4 = experiment: Growth inhibition of human OVCAR4 cells assessed as cell growth at 10 uM after 48 hrs by SRB assay; settings: OVCAR-4, 48 h, read-out: Activity
MCF7 [12] = experiment: Growth inhibition of human MCF7 cells assessed as cell growth at 10 uM after 48 hrs by SRB assay; settings: MCF7, 48 h, read-out: Activity
CCRF-CEM = experiment: Growth inhibition of human CCRF-CEM cells assessed as cell growth at 100 uM after 48 hrs by SRB assay; settings: read-out: Activity
SNB-19 = experiment: Growth inhibition of human SNB19 cells assessed as cell growth at 100 uM after 48 hrs by SRB assay; settings: SNB-19, 48 h, read-out: Activity
Malme-3M = experiment: Growth inhibition of human MALME-3M cells assessed as cell growth at 100 uM after 48 hrs by SRB assay; settings: read-out: Activity
DU-145 [13] = experiment: Growth inhibition of human DU145 cells assessed as cell growth at 100 uM after 48 hrs by SRB assay; settings: DU-145, 48 h, read-out: Activity
NCI-H23 = experiment: Growth inhibition of human NCI-H23 cells assessed as cell growth at 1 mM after 48 hrs by SRB assay; settings: NCI-H23, 48 h, read-out: Activity
COLO 205 = experiment: Growth inhibition of human COLO205 cells assessed as cell growth at 1 mM after 48 hrs by SRB assay; settings: COLO 205, 48 h, read-out: Activity
RXF 393 = experiment: Growth inhibition of human RXF393 cells assessed as cell growth at 1 mM after 48 hrs by SRB assay; settings: RXF 393, 48 h, read-out: Activity
[14] = Growth inhibition of human […] cells assessed as cell growth at 1 uM after 48 hrs by SRB assay; settings: read-out: Activity
HCC 2998 = experiment: Growth inhibition of human HCC2998 cells assessed as cell growth at 1 uM after 48 hrs by SRB assay; settings: HCC 2998, 48 h, read-out: Activity
HT-29 = experiment: Growth inhibition of human HT-29 cells assessed as cell growth at 1 uM after 48 hrs by SRB assay; settings: HT-29, 48 h, read-out: Activity
[15] = read-out: LC50 (the source's name)
[16] = read-out: pLC50 (the source's name) (converted)

CNC(=O)NC[C@H]1O[C@@H](n2cnc3c(NC(=O)Nc4ccccc4)ncnc32)[C@H](O[Si](C)(C)C(C)(C)C)[C@@H]1CC(=O)N(C)OC
growth at 1 µM (T47D): 89% | growth at 10 µM (K562): 82% | growth at 10 µM (HOP-62 [1]): 86% | growth at 10 µM (HOP-92): 67% | growth at 10 µM (NCI-H322M): 102% | GI50 ([2]; read-out: GI50): 1.58 µM | CC50 [2, 15]: > 100 µM | TGI ([2]; read-out: TGI): 5.4 µM | GI50 ([2]; read-out: pGI50 (converted)): 1.58 µM | CC50 [2, 16]: > 100 µM | TGI ([2]; read-out: pTGI (converted)): 5.37 µM | GI50 (NCI-H226; read-out: GI50): 41.9 µM | CC50 (NCI-H226; [15]): > 100 µM | TGI (NCI-H226; read-out: TGI): > 100 µM | GI50 (NCI-H226; read-out: pGI50 (converted)): 41.7 µM | CC50 (NCI-H226; [16]): > 100 µM | TGI (NCI-H226; read-out: pTGI (converted)): > 100 µM | GI50 (SNB-75 [3]; read-out: GI50): 12.7 µM | CC50 (SNB-75 [3]; [15]): > 100 µM | TGI (SNB-75 [3]; read-out: TGI): > 100 µM | GI50 (SNB-75 [3]; read-out: pGI50 (converted)): 12.9 µM | CC50 (SNB-75 [3]; [16]): > 100 µM | TGI (SNB-75 [3]; read-out: pTGI (converted)): > 100 µM | GI50 (IGROV-1 [4]; read-out: GI50): 3.72 µM | CC50 (IGROV-1 [4]; [15]): > 100 µM | TGI (IGROV-1 [4]; read-out: TGI): 65.7 µM | GI50 (IGROV-1 [4]; read-out: pGI50 (converted)): 3.72 µM | CC50 (IGROV-1 [4]; [16]): > 100 µM | TGI (IGROV-1 [4]; read-out: pTGI (converted)): 66.1 µM | GI50 (OVCAR-3; read-out: GI50): 7.11 µM | CC50 (OVCAR-3; [15]): > 100 µM | TGI (OVCAR-3; read-out: TGI): > 100 µM | GI50 (OVCAR-3; read-out: pGI50 (converted)): 7.08 µM | CC50 (OVCAR-3; [16]): > 100 µM | TGI (OVCAR-3; read-out: pTGI (converted)): > 100 µM | GI50 (TK-10; read-out: GI50): 20.6 µM | CC50 (TK-10; [15]): > 100 µM | TGI (TK-10; read-out: TGI): > 100 µM | GI50 (TK-10; read-out: pGI50 (converted)): 20.4 µM | CC50 (TK-10; [16]): > 100 µM | TGI (TK-10; read-out: pTGI (converted)): > 100 µM | growth at 0.1 µM (HOP-62 [5]): 92% | growth at 0.1 µM (SNB-75 [6]): 94% | growth at 0.1 µM (U-251 [7]): 97% | growth at 0.1 µM (ACHN): 107% | growth at 0.1 µM (UO-31): 89% | growth at 0.1 µM (DU-145 [8]): 107% | growth at 0.1 µM (MCF7 [9]): 91% | growth at 0.1 µM (MDA-MB-231): 97% | growth at 10 µM (U-251 [10]): 90% | growth at 10 µM (UACC-257): 102% | growth at 10 µM (IGROV-1 [11]): 82% | growth at 10 µM (OVCAR-4): 96% | growth at 10 µM (MCF7 [12]): 96% | growth at 100 µM (CCRF-CEM): 39% | growth at 100 µM (SNB-19): 61% | growth at 100 µM (Malme-3M): 52% | growth at 100 µM (DU-145 [13]): 60% | growth at 1000 µM (NCI-H23): 43% | growth at 1000 µM (COLO 205): 1% | growth at 1000 µM (RXF 393): -36% | growth at 1 µM [14]: 91% | growth at 1 µM (HCC 2998): 97% | growth at 1 µM (HT-29): 107%
